Source: ChEMBL document CHEMBL1126184, “Synthesis and in vitro evaluation of boronated uridine and glucose derivatives for boron neutron capture therapy” (1992)

Assays:
Glioma [1] = settings: Rattus norvegicus
Description: Compound's ability to selectively deliver the requisite amounts of boron to tumors (cellular uptake of boron by the rat F98 Glioma cells at 16h was determined.)

Glioma [2] = settings: Rattus norvegicus; remark: listed apart in the source
Description: Compound's ability to selectively deliver the requisite amounts of boron to tumors(amount of boron present in media in rat F98 Glioma cells at 0h after incubation with the compound.)

Substance | Cellular uptake of boron at 16h (ug of B (g of cells)-1) (Glioma [1]) | Boron in media at 0h (Glioma [2])
4-(1,2,3,4,5,6,7,8,9,10decabora-Cyclododec-11-en-11-ylmethoxy)-6-hydroxymethyl-tetrahydro-pyran-2,3,5-triol | 65.2 | 6.75 µg of B/ml
1-[3-(1,2,3,4,5,6,7,8,9,10decabora-Cyclododec-11-en-11-ylmethoxy)-4-hydroxy-5-hydroxymethyl-tetrahydro-furan-2-yl]-1H-pyrimidine-2,4-dione | 104 | 6.75 µg of B/ml
1-[4-(1,2,3,4,5,6,7,8,9,10decabora-Cyclododec-11-en-11-ylmethoxy)-3-hydroxy-5-hydroxymethyl-tetrahydro-furan-2-yl]-1H-pyrimidine-2,4-dione | 96.2 | 6.75 µg of B/ml
1-[4-Hydroxy-5-hydroxymethyl-3-(1,2,3,4,5,6,7,8,9nonabora-cycloundec-10-en-10-ylmethoxy)-tetrahydro-furan-2-yl]-1H-pyrimidine-2,4-dione | 1.5 | 6.75 µg of B/ml
1-[5-(1,2,3,4,5,6,7,8,9,10decabora-Cyclododec-11-en-11-ylmethoxymethyl)-3,4-dihydroxy-tetrahydro-furan-2-yl]-1H-pyrimidine-2,4-dione | 83.8 | 6.75 µg of B/ml
